In patent US20120083522A1, “MODULATION OF INFLAMMATORY RESPONSES BY FACTOR XI” (Isis Pharmaceuitcals, inc., priority 2009, published 2012):
In the oligonucleotide strings, read from the 5' end, every base follows the letter of its sugar. An asterisk marks phosphorothioate; unmarked linkages are phosphodiester. Other units and linkages are bracketed, terminal groups are in braces. A string of capitals states the bases alone. e = 2'-O-(2-methoxyethyl) (MOE); [5mC] = 5-methylcytosine; d = 2'-deoxy (DNA)

Key:
[1] = tested on: DSS-induced colitis model; assay: Colitis Study A: DSS-induced colitis, body weight and colon length (Example 12); assay type: in vivo, Swiss Webb mice
Protocol: The effect of antisense oligonucleotide inhibition of Factor XI and its role in ameliorating colitis was evaluated in a dextran sulfate sodium (DSS)-induced colitis model. Administration of DSS to animals is a well known method to induce […] and has been previously described by Okayasu et al. (Gastroenterology, 1990, 98:694-702), Cooper et al. (Lab Invest, 1993, 69:238-249) and Dieleman et al. (Clin Exp Immunol, 1998, 114:385-391).
In groups of 8 Swiss Webb mice, 20 mg/kg of ISIS 404071 or ISIS 403102 were injected subcutaneously twice a week for 3 weeks. Two control groups of 8 mice each were injected with PBS twice a week for 3 weeks. After the oligonucleotide treatments, 4% DSS in water was administered ad libitum for 6 days to the experimental groups and one PBS control group.
Mice in all groups were weighed at day 0. Mice were sacrificed at the end of the study on day 7 after DSS was administered and their body weights and colon lengths were measured. Results are presented in Table 24 (expressed as a percentage of the PBS control) and FIG. 7.
Colon length was assessed in the DSS-induced colitis mice.

[2] = tested on: collagen-induced arthritis (CIA) model; assay: Arthritis Study A: collagen-induced arthritis (Example 11); assay type: in vivo, DBA/1J mice; details: DBA/1J mice, 20 mg/kg s.c. twice a week for 12 weeks
Protocol: The effect of inhibition of Factor XI and its role in fibrin accumulation in the joints leading to joint inflammation and rheumatoid arthritis was evaluated in a murine collagen-induced arthritis (CIA) model. […] Arthritis induced in mice administered collagen can be visually assessed and clinically scored as described by Marty et al. (J Clin Invest, 107:631-640, 2001) where 1 point is given for each swollen digit except the thumb (maximum, 4), 1 point is given for the tarsal or carpal joint, and 1 point is given for the metatarsal or metacarpal joint with a maximum score of […]. Each paw was graded individually, the cumulative clinical arthritic score per mouse reaching a maximum of 22 points
In a group of 15 DBA/1J mice, 20 mg/kg of ISIS 404071 was injected subcutaneously twice a week for 12 weeks. One control group of 15 mice was injected with 20 mg/kg of ISIS 403102 twice a week for 12 weeks. Two control groups of 15 mice each were injected with PBS twice a week for 12 weeks. Two weeks after the first oligonucleotide dose, type II bovine collagen (Chondrex Inc, Redmond, Wash.) was mixed with complete Freund's adjuvant, homogenized on ice and the emulsion, containing 100 μg of collagen, was injected subcutaneously at the base of the tail in the Factor XI group, the Factor VII group and one of the PBS control groups. A booster injection containing 100 μg collagen type II in incomplete Freund's adjuvant was injected subcutaneously at the base of the tail at a different injection site on day 21 after the first collagen injection in these groups.
Starting 35 days from the first collagen injection, mice in all groups were examined daily for the visual appearance of arthritis, such as swelling and stiffness, in peripheral joints. The results are presented in Table 20 (expressed as a percentage of the PBS control) and in FIGS. 1-3.
‘Incidence of CIA’ refers to the percentage of mice in each group that had CIA at day 40. The ‘percentage of paws affected’ refers to the percentage of paws out of a total of 60 paws in each group of mice that were affected with arthritis. ‘Average number of affected paws’ refers to the number of affected paws in mice that were diagnosed to have arthritis. The ‘clinical severity of CIA’ was scored as described by Marty et al. (J Clin Invest, 107:631-640, 2001) and as follows: 1 point for each swollen digit except the thumb (maximum, 4), 1 point for the tarsal or carpal joint, and 1 point for the metatarsal or metacarpal joint with a maximum score of 6 for a hindpaw and 5 for a forepaw. Each paw was graded individually, the cumulative clinical arthritic score per mouse reaching a maximum of 22 points.

[3] = tested on: DSS-induced colitis model; assay: Colitis Study A: colon tissue histopathology; details: FIG. 8, listed as Factor VII ASO
[4] = Tolerability in Sprague-Dawley rats: hematology assays (Example 23); assay type: in vivo; set-up: RBC / WBC / Neutrophil / Lymphocyte / Platelets: unit not given here; details: blood
[5] = Tolerability in CD1 mice: kidney function (Example 21); assay type: in vivo; details: plasma, 50 mg/kg s.c. twice per week for 6 weeks
[6] = Tolerability in CD1 mice: body and organ weights (Example 21); assay type: in vivo; details: 50 mg/kg s.c. twice per week for 6 weeks; for Body weight: increase over PBS control weight before start of treatment; for Kidney weight / Liver weight / Spleen weight: percentage of the body weight
Protocol: Body weight was measured at the onset of the study and subsequently twice per week. The body weights of the mice are presented in Table 87 and are expressed increase in grams over the PBS control weight taken before the start of treatment. Liver, spleen, and kidney weights were measured at the end of the study, and are also presented in Table 87 as percentage of the body weight.

[7] = Tolerability in Sprague-Dawley rats: body and organ weights (Example 23); assay type: in vivo; details: 50 mg/kg s.c. twice per week for 6 weeks; for Body weight: increase over PBS control weight before start of treatment; for Kidney weight / Liver weight / Spleen weight: percentage of the body weight
[8] = Tolerability in CD1 mice: liver function (Example 21); assay type: in vivo; set-up: Albumin: unit not given here; details: plasma, 50 mg/kg s.c. twice per week for 6 weeks
[9] = Tolerability in Sprague-Dawley rats: liver function (Example 23); assay type: in vivo; set-up: Albumin: unit not given here; details: plasma, 50 mg/kg s.c. twice per week for 6 weeks
[10] = Tolerability in Sprague-Dawley rats: kidney function (Example 23); assay type: in vivo; details: for BUN: plasma; for Total urine protein / Urine protein/creatinine ratio: total urine samples
[11] = Tolerability in CD1 mice: hematology assays (Example 21); assay type: in vivo; details: 50 mg/kg s.c. twice per week for 6 weeks
[12] = DSS-induced colitis, day 7, 20 mg/kg s.c. twice a week for 3 weeks, expressed as a percentage of the PBS control

For “CCATAGAACAGCTTCACAGG (e[5mC]*e[5mC]*eA*eT*eA*dG*dA*dA*d[5mC]*dA*dG*d[5mC]*dT*dT*d[5mC]*eA*e[5mC]*eA*eG*eG) [ISIS 403102, reference compound]”, the “body weight (in words)” value ([1]; Colitis Study A, FIG. 7A/7B) was “had a decrease in body weight”, the “colon length (in words)” value ([1]; Colitis Study A, FIG. 7C) was “had a decrease in colon length” and the Body weight change [1, 12] was −7%. For the same sequence, the Colon length change [1, 12] was −34%, the “Average no. of paws affected” value ([2]; in mice diagnosed with arthritis) was 1 and the “% of paws affected” value ([2]; out of 60 paws per group) was 19%. The “% of CIA” value ([2]; percentage of mice in group with CIA at day 40) was 54%, the “Clinical severity of CIA” value ([2]; score of Marty et al., maximum 22 points) was 4 and the “colon histology, lesions (in words)” value [3] was “shows the same histology as the DSS control”.

Sequence “GGACGGCATTGGTGCACAGT (antisense; all C 5-methyl, all phosphorothioate, sugars by position not given here; MOE gapmer, 5-10-5) [ISIS 413482, 5-10-5 MOE gapmer]” has an HCT [4] of 40%, a Hemoglobin [4] of 13.2 g/dL and a Lymphocyte [4] of 11430. The Neutrophil [4] was 1125, the Platelets [4] was 641 and the RBC [4] was 7.1. The WBC [4] was 13, the BUN [5] was 27 mg/dL and the Body weight [6] was 11 g. For the same sequence, the Kidney weight [6] was 1.6%, the Liver weight [6] was 6% and the Spleen weight [6] was 0.5%. For the same sequence, the Body weight [7] was 158 g, the Kidney weight [7] was 1.0% and the Liver weight [7] was 5%. It also gave a Spleen weight [7] of 0.6%, an ALT [8] of 54 IU/L and an AST [8] of 77 IU/L. It also gave an Albumin [8] of 3.0, a Bilirubin [8] of 0.24 mg/dL and a Cholesterol [8] of 138 mg/dL. It also gave an ALT [9] of 59 IU/L, an AST [9] of 157 IU/L and an Albumin [9] of 4. The Bilirubin [9] was 0.14 mg/dL, the creatinine [10] was 34 mg/dL and the BUN [10] was 23 mg/dL. For the same sequence, the Total urine protein [10] was 157 mg/dL, the Urine protein/creatinine ratio [10] was 4.8 and the HCT [11] was 50%. It also gave a Hemoglobin [11] of 15 g/dL, a Lymphocyte [11] of 5584 cells/μL and a Monocytes [11] of 275 cells/μL. For the same sequence, the Neutrophil [11] was 1958 cells/μL, the Platelets [11] was 818 10^3/μL and the RBC [11] was 10 10^6/μL. The WBC [11] was 8 10^3/μL.

For “GGTGCACAGTTTCTGGCAGG (all C 5-methyl, all phosphorothioate, sugars by position not given here; MOE gapmer) [ISIS 413481, 5-10-5 MOE gapmer]”, the HCT [4] was 43%, the Hemoglobin [4] was 14.2 g/dL and the Lymphocyte [4] was 12707. It also gave a Neutrophil [4] of 1046, a Platelets [4] of 552 and an RBC [4] of 7.5. The WBC [4] was 14, the BUN [5] was 23 mg/dL and the Body weight [6] was 9 g. For the same sequence, the Kidney weight [6] was 1.5%, the Liver weight [6] was 6% and the Spleen weight [6] was 0.5%. The Body weight [7] was 147 g, the Kidney weight [7] was 0.9% and the Liver weight [7] was 5%. It also gave a Spleen weight [7] of 0.3%, an ALT [8] of 85 IU/L and an AST [8] of 143 IU/L. The Albumin [8] was 3.2, the Bilirubin [8] was 0.18 mg/dL and the Cholesterol [8] was 153 mg/dL. The ALT [9] was 54 IU/L, the AST [9] was 80 IU/L and the Albumin [9] was 4. It also gave a Bilirubin [9] of 0.22 mg/dL, a creatinine [10] of 45 mg/dL and a BUN [10] of 26 mg/dL. The Total urine protein [10] was 148 mg/dL, the Urine protein/creatinine ratio [10] was 3.6 and the HCT [11] was 45%. It also gave a Hemoglobin [11] of 13 g/dL, a Lymphocyte [11] of 4329 cells/μL and a Monocytes [11] of 204 cells/μL. The Neutrophil [11] was 1904 cells/μL, the Platelets [11] was 841 10^3/μL and the RBC [11] was 9 10^6/μL. The WBC [11] was 7 10^3/μL.
